The target of the assay is Endoplasmin (Canis lupus familiaris, UniProt P41148). Kind of assay: Inhibition of BODIPY-AG binding to dog Grp94.

Each structure is given as a SMILES string. pEC50: −log10 of the molar value.

These results are taken from BindingDB's records for doi:10.1021/jm0603116 (Infinity Pharmaceuticals, 2006).

Endoplasmin, sequence (P41148 whole entry): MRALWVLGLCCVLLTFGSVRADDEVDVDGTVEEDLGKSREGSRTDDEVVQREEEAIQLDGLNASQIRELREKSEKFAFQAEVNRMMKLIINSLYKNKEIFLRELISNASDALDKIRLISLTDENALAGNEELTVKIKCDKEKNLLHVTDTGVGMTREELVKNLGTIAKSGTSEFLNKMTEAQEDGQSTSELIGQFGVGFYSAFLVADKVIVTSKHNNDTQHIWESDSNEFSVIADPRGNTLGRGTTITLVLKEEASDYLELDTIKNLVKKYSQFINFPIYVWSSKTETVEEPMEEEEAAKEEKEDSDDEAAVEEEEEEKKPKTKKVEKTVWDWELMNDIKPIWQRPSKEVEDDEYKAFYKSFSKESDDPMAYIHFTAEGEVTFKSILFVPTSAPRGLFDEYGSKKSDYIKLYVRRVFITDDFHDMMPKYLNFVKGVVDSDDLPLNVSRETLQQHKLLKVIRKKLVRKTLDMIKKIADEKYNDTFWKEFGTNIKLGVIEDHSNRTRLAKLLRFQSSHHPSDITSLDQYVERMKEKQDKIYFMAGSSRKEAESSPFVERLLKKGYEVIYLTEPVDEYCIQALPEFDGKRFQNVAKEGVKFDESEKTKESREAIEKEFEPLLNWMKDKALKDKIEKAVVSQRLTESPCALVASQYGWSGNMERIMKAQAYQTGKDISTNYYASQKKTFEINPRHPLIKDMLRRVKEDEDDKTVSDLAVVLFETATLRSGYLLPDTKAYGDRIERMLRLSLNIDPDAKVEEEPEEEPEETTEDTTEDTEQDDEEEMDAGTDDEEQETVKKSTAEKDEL

As a reminder, the pEC50 is the negative decadic logarithm of the EC50, by convention in mol/L. Read a high pEC50 as a small EC50. Compound `CO[C@H]1C=CC=C(C)C(=O)Nc2cc(O)c(N)c(c2O)C=C(C)C[C@H](OC)[C@H](O)[C@@H](C)/C=C(\C)[C@@H]1OC(N)=O` [17-amino-17-demethoxygeldanamycin] had a negative-log EC50 (pEC50) of 7.32.
